The subject of one assay is MeWo melanoma cell line. The assay can be described thus: scratch assay for migration, MeWo. Type of assay: cell-based, human. The settings on record: OGM 5 μM, EIPA 10 μM, 20 hours. On the procedure: (§1) Cells were grown to confluence and the cells were denuded with a P200 tip. A medium change was done to add fresh medium, remove loose cells and add compounds OGM (5 μM) and EIPA (10 μM). The area of the scratch was observed 20 hours later.
(§2) Since there are numerous parallels are found between neural crest cells and cancer during migration, we examined whether OGM could inhibit the migration of cells in human melanoma cell lines (Oppitz et al., 2007; Schriek et al., 2005; Sinnberg et al., 2018). […] A2058, MeWo and WM115 cells were grown to confluence and a stripe of cells were denuded with a p200 pipette tip “scratch” and rinsed with PBS. Cells were treated with OGM or EIPA, or DMSO and incubated in low serum media. Imaging was done at 30 minutes after “scratch” and then 20 hours afterwards. Areas were then measured and normalized to the initial area.
(§3) Previous studies with the MV3 melanoma cell line have shown that disruption of proton efflux with EIPA inhibition of NHE1 can also reduce melanoma motility (Ludwig et al., 2013; Schneider et al., 2009; Stock et al., 2007, 2005; Stüwe et al., 2007). […] Although the expression of GPR68 and other proton-sensing receptors have been characterized in various skin cancers (Merkel cell carcinoma, dermatofibrosarcoma protuberans, atypical fibroxanthoma, and pleomorphic dermal sarcoma), expression in melanoma cell lines has not investigated (Nassios et al., 2019).

Another assay deals with A2058 melanoma cell line. The assay can be described thus: scratch assay for migration, A2058. It counts as cell-based, human. Particulars: OGM 5 μM, EIPA 10 μM, 20 hours. The protocol: as §1, §2, §3
In another assay the test system is WM115 melanoma cell line. The assay can be described thus: scratch assay for migration, WM115. Type of assay: cell-based, human. The settings on record: OGM 5 μM, EIPA 10 μM, 20 hours. On the procedure:
as §1, §2, §3

A further assay addresses Lpa1 (Homo sapiens (Human), UniProt Q92633). The experiment in a line: Lpa1 activity of OGM analogs (Table 5). Type of assay: cell-based.
Another assay has as its system zebrafish embryo. The experiment in a line: zebrafish embryo phenotype (pigmentation, morphology). Particulars: concentrations up to 200× the IC50. Type of assay: in vivo.
For a further assay, the target named is GPR68 (Homo sapiens (Human), UniProt Q15743). The experiment in a line: GPR68 inhibitory activity of OGM analogs (Table 5). It counts as cell-based. The protocol: GPCR profiling assays were performed by Millipore (St. Louis, MO) using in cells expressing Gα15, a promiscuous G protein that enhances GPCR coupling to downstream Ca2+ signaling pathways.
Sequence of GPR68 (Q15743 whole entry, looked up): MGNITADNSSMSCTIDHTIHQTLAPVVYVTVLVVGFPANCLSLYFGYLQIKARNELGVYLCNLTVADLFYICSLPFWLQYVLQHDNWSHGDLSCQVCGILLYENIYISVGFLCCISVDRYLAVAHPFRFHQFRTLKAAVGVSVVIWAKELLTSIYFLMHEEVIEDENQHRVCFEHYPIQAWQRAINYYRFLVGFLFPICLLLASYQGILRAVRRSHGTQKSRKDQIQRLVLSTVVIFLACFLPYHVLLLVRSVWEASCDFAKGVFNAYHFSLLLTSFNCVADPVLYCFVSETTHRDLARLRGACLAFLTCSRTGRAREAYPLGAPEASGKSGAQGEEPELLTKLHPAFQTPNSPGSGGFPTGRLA
Since GPCRs represent >30% of targets for FDA-approved small molecules and are known to modulate cell migration, activity against 158 GPCRs was assessed based on their chemical structures. GPCRs (158) were tested for agonist and antagonist activity at 10 μM. […] Chemical segregation analysis of zebrafish phenotype was conducted to further identify the inhibitory activity responsible for the zebrafish phenotype. […] The identities of the R groups in FIG. 2B are shown below in Table 5.
Chem1-GPR68 reporter cells were treated with 20 uM OM8345 for 2 hours and then rinsed with HBSS. […] The GPR68 inhibitory activity of OGM analogs segregated with the ability of the molecule to induce the phenotype in zebrafish. Neural crest progenitors labeled with In situ hybridization of FoxD3 show normal formation of the progenitor pool.

The next assay has as its target GPR68/OGR1 (Homo sapiens (Human), UniProt Q15743). The experiment in a line: inhibition of GPR68/OGR1 in CHEM1-OGR1 cells, Fluo-8 calcium response to acidified media. It counts as cell-based. Particulars: acidified media pH 6.4, Fluo-8. On the procedure: Briefly, the methods were: On the day before the assay 20,000 cells per well of CHEM1-OGR1 cells were plated in 10% DMEM containing 10% FBS and 1% Pen/Strep into a 96 well plate. After 24 hours media was removed and cells were stained with 80 uL Fluo-8 calcium indicator dye according to manufacturer's protocol. After staining cells were treated with 20 uL of 4× concentration of test compounds. Using kinetic imaging in the Lionheart HCS fluorescence intensity was continuously measure at 10 frames per second, for 5 seconds before 100 μL of acidified media was added to the well resulting in a pH of 6.4. A ratio of fluorescence intensities prior to addition and at peak were calculated and averaged. The resulting data were platted and using a 4 parameter logistic regression EC50 for each test compound was determined.

The next assay has as its system U87glioblastoma cells. The experiment in a line: 3D tumoroid growth over time with GPR68 modulators. It counts as cell-based. Particulars: 10 μM/20 μM, imaged every 12 hours. On the procedure:
A GPR68-positive allosteric modulator, Ogerin, was tested. U87glioblastoma cells were plated in low attachment round bottom 96-well plates and allowed to form tumor spheroids for 3 days (T0). These spheroids were treated with Vehicle (DMSO), 10 μM/20 μM Ogerin or 10 μM/20 μM Ogremorphin (OGM2). The spheroids were placed in the Lionheart™ HCS equipped with environmental control (5% CO2 at 37° C.) and imaged every 12 hours.

The source of these data is US12194027B2, “Small molecule inhibitors of GPCR GPR68 and related receptors for treating cancer, glioblastoma, and other indications” (UNIVERSITY OF MARYLAND, BALTIMORE, priority 2019, dated 2025).

Sequence of GPR68/OGR1 (Q15743 whole entry): as the sequence (Q15743 whole entry, looked up) above
Sequence of Lpa1 (Q92633 whole entry, species assumed): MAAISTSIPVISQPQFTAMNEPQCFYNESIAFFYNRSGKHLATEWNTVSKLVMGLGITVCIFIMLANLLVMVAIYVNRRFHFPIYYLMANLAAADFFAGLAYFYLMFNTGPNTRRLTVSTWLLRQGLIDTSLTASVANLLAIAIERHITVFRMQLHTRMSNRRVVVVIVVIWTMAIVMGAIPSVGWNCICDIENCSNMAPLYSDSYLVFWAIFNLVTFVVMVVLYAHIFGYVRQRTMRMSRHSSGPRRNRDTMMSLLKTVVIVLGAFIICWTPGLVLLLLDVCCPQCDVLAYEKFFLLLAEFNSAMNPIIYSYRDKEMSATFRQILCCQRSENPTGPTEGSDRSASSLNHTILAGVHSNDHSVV

On to `CCN(c1nc(N)c(C(=O)NC(=N)N)nc1Cl)C(C)C` [EIPA, reference compound], for which the figures for the “migration in scratch assay” value with MeWo melanoma cell line, in the assay with A2058 melanoma cell line and in the assay on WM115 melanoma cell line were “refractory to the inhibition”, “inhibited migration” and “inhibited migration”, respectively.
For orientation: IC50 means the concentration that inhibits the measured activity by half. Turning to `Cc1noc(-c2ccc(CSCCC(=O)O)cc2)c1NC(=O)OC(C)c1ccccc1Cl` (centres unmarked) [LPAi, reference compound], the IC50 against Lpa1 came out at 0.25 µM. In the assay with zebrafish embryo, the zebrafish phenotype result is listed as “failed to induce a noticeable phenotype”.
Usually EC50 stands for the midpoint of the concentration-response curve. Compound `CCc1ccc2c(c1)C1(NN=C(c3cccc4ccccc34)S1)C(=O)N2` (centres unmarked) [OGM1] yielded an IC50 on GPR68 of 0.16 µM. Also, the EC50 on GPR68/OGR1 was determined as 0.17 µM.
In the case of `Cc1ccc2c(c1)C1(NN=C(c3ccccc3)S1)C(=O)N2` (centres unmarked) [OGM3], the IC50 came to 0.76 µM against GPR68 and 6.4 µM at Lpa1.
The like results for `CCc1ccc2c(c1)C1(NN=C(c3ccccc3O)S1)C(=O)N2` (centres unmarked) [OGM4] were, in that order, 3.4 µM and 1.4 µM.
On GPR68, `CN1C(=O)C2(NN=C(c3ccccc3)S2)c2ccccc21` (centres unmarked) [OGM5] displayed an IC50 of 0.81 µM.
Turning to `CN1C(=O)C2(NN=C(c3cccc4ccccc34)S2)c2ccccc21` (centres unmarked) [OGM6], on GPR68, the IC50 amounted to 1.5 µM.
Turning to `O=C1Nc2ccc(Cl)cc2C12NN=C(c1ccccc1)S2` (centres unmarked) [OGM7], the EC50 at GPR68/OGR1 was 1.62 µM.
As to `O=C1Nc2ccccc2C12NN=C(c1ccc(Cl)cc1)S2` (centres unmarked) [OGM13], the EC50 on GPR68/OGR1 is under 0.4 µM.
For the compound `COc1ccc(C2=NNC3(S2)C(=O)Nc2ccc(OC)cc23)cc1` (centres unmarked) [OGM17], at GPR68/OGR1, the EC50 was 0.9 µM.
Turning to `Cc1ccc(C2=NNC3(S2)C(=O)Nc2ccc(F)cc23)cc1` (centres unmarked) [OGM18], at GPR68/OGR1, the EC50 was 0.985 µM.
Take `O=C1Nc2ccc(Cl)cc2C12NN=C(c1ccc(Cl)cc1)S2` (centres unmarked) [OGM19]: at GPR68/OGR1, the EC50 is under 0.4 µM.
Take `O=C1Nc2ccc(Cl)cc2C12NN=C(c1ccc(F)cc1)S2` (centres unmarked) [OGM21]: the EC50 on GPR68/OGR1 was 0.796 µM.
Take `COc1ccc2c(c1)C1(NN=C(c3ccc(Cl)cc3)S1)C(=O)N2` (centres unmarked) [OGM22]: at GPR68/OGR1, the EC50 was under 0.4 µM.
For `O=C1Nc2ccc(Cl)cc2C12NN=C(c1cccc3ccccc13)S2` (centres unmarked) [OGM23], the EC50 on GPR68/OGR1 was determined as 5.04 µM.
On to `COc1ccc2cc(C3=NNC4(S3)C(=O)Nc3ccc(Cl)cc34)ccc2c1` (centres unmarked) [OGM24], for which, on GPR68/OGR1, the half-maximal effective concentration (EC50) is 45.9 µM.
The same measure, in the same setting: in the case of `COc1ccc2cc(C3=NNC4(S3)C(=O)Nc3ccc(F)cc34)ccc2c1` (centres unmarked) [OGM26] it was 0.708 µM.
The same measure, in the same setting: next, `CCc1ccc2c(c1)C1(NN=C(c3ccc4cc(OC)ccc4c3)S1)C(=O)N2` (centres unmarked) [OGM27]: over 10 µM; `CCc1ccc2c(c1)C1(NN=C(c3ccc(OC)cc3)S1)C(=O)N2` (centres unmarked) [OGM28]: over 10 µM; `COc1ccc(C2=NNC3(S2)C(=O)N(CC=C(C)C)c2ccc(Cl)cc23)cc1` (centres unmarked) [OGM29]: over 10 µM.
Consider `COc1ccc(C2=NNC3(S2)C(=O)N(CC=C(C)C)c2ccccc23)cc1` (centres unmarked) [OGM30], for which, at GPR68/OGR1, the EC50 is over 10 µM.
On the same count and under the same terms, in the case of `CC(C)=CCN1C(=O)C2(NN=C(c3cccc4ccccc34)S2)c2cc(Cl)ccc21` (centres unmarked) [OGM32] it was over 10 µM; in that of `CC(C)=CCN1C(=O)C2(NN=C(c3cccc4ccccc34)S2)c2ccccc21` (centres unmarked) [OGM33], over 10 µM; in that of `COc1ccc2cc(C3=NNC4(S3)C(=O)N(CC=C(C)C)c3ccccc34)ccc2c1` (centres unmarked) [OGM34], over 10 µM.
`COc1ccc2cc(C3=NNC4(S3)C(=O)N(CC=C(C)C)c3ccc(Cl)cc34)ccc2c1` (centres unmarked) [OGM35]: the EC50 at GPR68/OGR1 is over 10 µM.
As for `COc1ccc2c(c1)C1(NN=C(c3cccc4cccnc34)S1)C(=O)N2` (centres unmarked) [OGM38], the EC50 on GPR68/OGR1 turned out to be 3.69 µM.
Turning to `COc1ccc2c(c1)C1(NN=C(c3ccc4ncccc4c3)S1)C(=O)N2` (centres unmarked) [OGM43], the EC50 at GPR68/OGR1 was over 10 µM.
Same read-out and setting: in the case of `COC(=O)c1ccc2c(c1)C1(NN=C(c3cccc4cccnc34)S1)C(=O)N2` (centres unmarked) [OGM44] it was 2.92 µM; in that of `O=C1Nc2ccc(F)cc2C12NN=C(c1ccc3ncccc3c1)S2` (centres unmarked) [OGM45, 5-fluoro-5′-(quinolin-6-yl)-1,2-dihydro-3′H-spiro[indole-3,2′-[1,3,4]thiadiazol]-2-one], 10 µM; in that of `COC(=O)c1ccc2c(c1)C1(NN=C(c3cccnc3)S1)C(=O)N2` (centres unmarked) [OGM47], over 10 µM.
On to `CCc1ccc2c(c1)C1(NN=C(c3cccnc3)S1)C(=O)N2` (centres unmarked) [OGM48], for which the EC50 at GPR68/OGR1 was over 10 µM.
On to `CCc1ccc2c(c1)C1(NN=C(c3ccnc(OC)c3)S1)C(=O)N2` (centres unmarked) [OGM49, 5-ethyl-5′-(2-methoxypyridin-4-yl)-1,2-dihydro-3′H-spiro[indole-3,2′-[1,3,4]thiadiazol]-2-one: 2,2,2-trifluoroacetic Acid], for which the EC50 at GPR68/OGR1 was determined as 1.09 µM.
On to `COc1ccc2c(c1)C1(NN=C(c3cccnc3)S1)C(=O)N2` (centres unmarked) [OGM50], for which the EC50 on GPR68/OGR1 amounted to 1.86 µM.
Take `COc1ccc2c(c1)NC(=O)C21NN=C(c2ccnc(OC)c2)S1` (centres unmarked) [OGM51]: at GPR68/OGR1, the EC50 came out at 1.44 µM.
Consider `NS(=O)(=O)c1ccc2c(c1)C1(NN=C(c3ccccc3)S1)C(=O)N2` (centres unmarked) [OGM52], for which, at GPR68/OGR1, the EC50 worked out at 0.822 µM.
Regarding `NS(=O)(=O)c1ccc2c(c1)C1(NN=C(c3cccnc3)S1)C(=O)N2` (centres unmarked) [OGM53], at GPR68/OGR1, the EC50 was determined as 0.9 µM.
`COc1cc(C2=NNC3(S2)C(=O)Nc2ccc(F)cc23)ccn1` (centres unmarked) [OGM57]: at GPR68/OGR1, the EC50 was determined as 0.805 µM.
`CCc1ccc2c(c1)C1(NN=C(c3cccc4cccnc34)S1)C(=O)N2` (centres unmarked) [OGM58]: on GPR68/OGR1, the EC50 is under 0.4 µM.
As to `CCc1ccc2c(c1)C1(NN=C(c3ccncc3)S1)C(=O)N2` (centres unmarked) [OGM60], the EC50 at GPR68/OGR1 is under 0.4 µM.
`Nc1nc(NCc2ccccc2)nc(-c2ccccc2CO)n1` [Ogerin]: in the assay on U87glioblastoma cells, the “growth in 3D tumoroid culture” value is reported as “Stimulates Growth”.
With `COc1cc(Br)c(S(=O)(=O)Nc2ccc(Cl)c(O[C@@H]3CCN(C)C3)c2)cc1OC` [UT2i, reference compound], the zebrafish phenotype result with zebrafish embryo is “failed to induce a noticeable phenotype”.
